As usually defined, the LD50 is the dose at which mortality reaches 50%. Read a low LD50 as a more toxic substance.

Results on six compounds are retold here after patent publication US4889872A, “2,3,5,6-Tetrafluorobenzyl (+) 1r-trans-2,2-dimethyl-3-(2,2-dichlorovinyl)-cyclopropanecarboxylate” (priority 1987, dated 1989).

Series [1] relates to Musca domestica, resistant. The experiment in a line: Aerosol Test (knock-down effect on resistant flies, 30 m^3 room). Format: in vivo. The text has this:
In each experiment, 3 wire cages each containing 20 resistant male Musca domestica are suspended in rooms of volume 30 m^3. The room is then sprayed using spray cans containing active compounds I, II, III and IV or active compound mixtures I+IV; II+IV; V+VI; V+VI+I and V+VI+II according to formulation Examples 1-9.
The amount of spray applied per spray can is 12.4 g. After spraying, the rooms are sealed and the action of the spray mist on the flies observed continuously through windows. The number of minutes after which 50 and 95% of the animals had fallen onto their backs (knock-down effect) is recorded. After a tesst duration of 1 hour, the percentage of knocked-downanimals is subsequently determined. The table below contains the values determined.

In series [2] the test system is rats. To be noted: cited from earlier work.
Series [3] has as its system insects. Kind of series: insecticidal / biological action (general statements). Format: in vivo.
Series [4] in a line: oral toxicity to mammals (LD50, rats). It is filed as in vivo. To be noted: rat, in vivo; male rats; oral.
In series [5] the test system is rats. The experiment in a line: oral toxicity to mammals (LD50, rats). Format: in vivo.
In the next series the test system is Aedes aegypti. The experiment in a line: Vapor test (knock-down action on mosquitoes, electroevaporator ovens). It is filed as in vivo. To be noted: compound II 10 mg. The protocol: Small cellulose tablets containing active compound according to formulation examples Nos. 9 and 10 are placed on the hotplate of small electroevaporator ovens, producing temperatures of 130° and 160° C. The instruments ae connected to the mains via a socket and heated up in living rooms of equal size and equally equipped.
During the experiment, one window in the rooms remained open to the outside in the tilted position. Immediately after switching on the ovens, 2 wire baskets each containing 20 mosquitoes of the Aedes aegypti species, 3-4 days old, were hung in each room. The knock-down action on the mosquitoes was checked half or one hour later. After the oven had burnt for a longer period, fresh mosquitoes were again introduced in the same way into the rooms at certain times, and the activity was again tested after half or one hour. The temperature of the heating oven, the amounts of reactive compounds, the heating duration, the test time and the knockdown effect can be seen from the table below.
(%Knock-down: percentage of mosquitoes which have fallen onto their backs).
In the present test, active compounds I (according to the invention) and II ((-)1R-trans-isomer of fenfluthrin) were employed.

For a further series, the system named is flies. Conditions: versus mixture of equal parts of the 2,3,5,6-tetrafluorobenzyl and 3,5,6-trifluorobenzyl ester; cited from earlier work.
Series [6] concerns insects. Conditions: prior art, ester alone; cited from earlier work.
The mark [7] stands for this setting: compound I 10 mg, oven 130 °C, animals introduced after 0 h heating, residence 1 h.
Where [8] appears, read: compound I 10 mg, oven 130 °C, animals introduced after 8 h heating, residence 1 h.
The mark [9] stands for this setting: compound I 10 mg, oven 130 °C, animals introduced after 26 h heating, residence 1 h.
Setting [10] is: compound I 10 mg, oven 130 °C, animals introduced after 50 h heating, residence 1 h.
The mark [11] stands for this setting: compound I 10 mg, oven 160 °C, animals introduced after 0 h heating, residence 1 h.
Where [12] appears, read: compound I 10 mg, oven 160 °C, animals introduced after 8 h heating, residence 1 h.
Setting [13] is: compound I 10 mg, oven 160 °C, animals introduced after 26 h heating, residence 1 h.
[14] abbreviates: compound I 20 mg, oven 130 °C, animals introduced after 0 h heating, residence 1 h.
The mark [15] stands for this setting: compound I 20 mg, oven 130 °C, animals introduced after 8 h heating, residence 1 h.
Setting [16] is: compound I 20 mg, oven 130 °C, animals introduced after 26 h heating, residence 1 h.
[17] abbreviates: compound I 20 mg, oven 130 °C, animals introduced after 50 h heating, residence 1 h.
The mark [18] stands for this setting: compound I 20 mg, oven 160 °C, animals introduced after 0 h heating, residence 1 h.
The mark [19] stands for this setting: compound I 20 mg, oven 160 °C, animals introduced after 8 h heating, residence 1 h.
The mark [20] stands for this setting: compound I 20 mg, oven 160 °C, animals introduced after 28 h heating, residence 1 h.
Setting [21] is: compound I 30 mg, oven 130 °C, animals introduced after 0 h heating, residence 0.5 h.
Where [22] appears, read: compound I 30 mg, oven 130 °C, animals introduced after 8 h heating, residence 0.5 h.
Setting [23] is: compound I 30 mg, oven 130 °C, animals introduced after 26 h heating, residence 0.5 h.
Where [24] appears, read: compound I 30 mg, oven 130 °C, animals introduced after 50 h heating, residence 0.5 h.
The mark [25] stands for this setting: compound I 30 mg, oven 160 °C, animals introduced after 0 h heating, residence 0.5 h.
Where [26] appears, read: compound I 30 mg, oven 160 °C, animals introduced after 8 h heating, residence 0.5 h.
[27] abbreviates: compound I 30 mg, oven 160 °C, animals introduced after 28 h heating, residence 0.5 h.
[28] abbreviates: compound I 30 mg, oven 160 °C, animals introduced after 32 h heating, residence 0.5 h.

Structures are written as SMILES. Like-named read-outs stand apart in the source and are kept apart here. A value given as a limit tells only on which side of the number the result lay.

Turning to `CC1(C)C(C=C(Cl)Cl)C1C(=O)OCc1c(F)c(F)cc(F)c1F` (racemic) [Active compound III, tetrafluorobenzyl cis/trans-2,2-dimethyl-3-(2,2-dichlorovinyl)-cyclopropanecarboxylate], in series [1] (5 mg/30 m^3), the “50% knock-down after minutes” value came to 38 min and the “95% knock-down after minutes” value came out at 52 min. Further, the “% knock-down after 1 hour” value in series [1] (5 mg/30 m^3, 1 hour) stood at 97%. For the same compound, the “oral LD50” value in the series on rats [2] (male rats) is 10 to 25 mg/kg. Further, in the series on insects [3] (compared with tetrafluorobenzyl (+)1R-trans ester according to the invention), the biological action result is “lower biological action”.
`CC1(C)[C@H](C=C(Cl)Cl)[C@H]1C(=O)OCc1c(F)c(F)cc(F)c1F` [Active compound I, 2,3,5,6-Tetrafluoro-benzyl (+)1R-trans-2,2-dimethyl-3-(2,2-dichlorovinyl)-cyclopropanecarboxylate] displayed an LD50 in series [4] greater than 5000 mg/kg. Also, the therapeutic index result in the series on rats [5] (gap between effective dose for the pest and toxicity to mammals) is “surprisingly favorable therapeutic index”. Moreover, in the series on rats [5] (ratio versus pentafluorobenzyl (-)1R-trans-2,2-dimethyl-3-(2,2-dichlorovinyl)-cyclopropanecarboxylate), the “toxicity to mammals lower than that of pentafluorobenzyl (-)1R-trans ester” value is given as 50 times. The “toxicity to mammals lower than that of tetrafluorobenzyl cis/trans ester” value with rats [5] (ratio versus tetrafluorobenzyl cis/trans-2,2-dimethyl-3-(2,2-dichlorovinyl)-cyclopropanecarboxylate) is “more than 250 times”. Besides, the “50% knock-down after minutes” value in series [1] (5 mg/30 m^3) stood at 22 min; in series [1] (7.5 mg/30 m^3), 18 min. The “95% knock-down after minutes” value in series [1] (5 mg/30 m^3) was determined as 47 min; in series [1] (7.5 mg/30 m^3), 33 min. For the same compound, the “% knock-down after 1 hour” value in series [1] (5 mg/30 m^3, 1 hour) turned out to be 96%; in series [1] (7.5 mg/30 m^3, 1 hour), 99%. In addition, the “% knock-down” value is reported as 100% in the series on Aedes aegypti (setting [7]); 100% in the series on Aedes aegypti (setting [8]); 100% in the series on Aedes aegypti (setting [9]); 85% in the series on Aedes aegypti (setting [10]); 100% with Aedes aegypti (setting [11]); 100% in the series on Aedes aegypti (setting [12]). Further, the “% knock-down” value in the series on Aedes aegypti (setting [13]) stood at 55%; in the series with Aedes aegypti (setting [14]) it was 100%; in the series on Aedes aegypti (setting [15]), 100%; in the series on Aedes aegypti (setting [16]), 100%; in the series on Aedes aegypti (setting [17]) it was 100%; in the series with Aedes aegypti (setting [18]), 100%. The “% knock-down” value worked out at 100% with Aedes aegypti (setting [19]); 100% in the series on Aedes aegypti (setting [20]); 97% in the series with Aedes aegypti (setting [21]); 100% in the series on Aedes aegypti (setting [22]); 100% in the series with Aedes aegypti (setting [23]); 92% in the series on Aedes aegypti (setting [24]). In addition, the “% knock-down” value with Aedes aegypti (setting [25]), in the series with Aedes aegypti (setting [26]), in the series with Aedes aegypti (setting [27]) and in the series on Aedes aegypti (setting [28]) was 100% in each case. Further, in the series on insects [3] (compared to pentafluorobenzyl (-)1R-trans ester, at the same or an only slightly higher dosage), the insecticidal action result is “comparable insecticidal action”.
As to `CC1(C)[C@H](C=C(Cl)Cl)[C@H]1C(=O)OCc1c(F)c(F)c(F)c(F)c1F` [Active compound II, pentafluorobenzyl (-)1R-trans-2,2-dimethyl-3-(2,2-dichlorovinyl)-cyclopropanecarboxylate], in series [1] (5 mg/30 m^3), the “50% knock-down after minutes” value was determined as 19 min. The “95% knock-down after minutes” value in series [1] (5 mg/30 m^3) came out at 37 min. For the same compound, the “% knock-down after 1 hour” value in series [1] (5 mg/30 m^3, 1 hour) was 99%. Also, the “% knock-down” value in the series on Aedes aegypti (setting [7]) is reported as 100%; in the series on Aedes aegypti (setting [8]), 100%; in the series with Aedes aegypti (setting [9]) it was 100%; in the series with Aedes aegypti (setting [10]), 97%; in the series on Aedes aegypti (setting [11]) it was 100%; in the series with Aedes aegypti (setting [12]) it was 100%. For the same compound, the “% knock-down” value stood at 40% in the series on Aedes aegypti (setting [13]); 100% with Aedes aegypti (setting [14]); 100% in the series on Aedes aegypti (setting [15]); 100% in the series with Aedes aegypti (setting [16]); 95% in the series with Aedes aegypti (setting [17]); 100% in the series with Aedes aegypti (setting [18]). In addition, the “% knock-down” value is 100% in the series with Aedes aegypti (setting [19]); 92% in the series on Aedes aegypti (setting [20]); 65% in the series with Aedes aegypti (setting [21]); 100% in the series on Aedes aegypti (setting [22]); 97% in the series with Aedes aegypti (setting [23]); 75% in the series on Aedes aegypti (setting [24]). Also, the “% knock-down” value in the series on Aedes aegypti (setting [25]) is recorded as 45%; in the series on Aedes aegypti (setting [26]) it was 100%; in the series with Aedes aegypti (setting [27]), 92%; in the series on Aedes aegypti (setting [28]), 47%. In addition, the “oral LD50” value with rats [2] (rats) is 90 to 105 mg/kg.
With `COP(=O)(OC)OC=C(Cl)Cl` [Active compound IV, dichlorvos], the “% knock-down after 1 hour” value in series [1] (124 mg/30 m^3, 1 hour) amounted to 22%.
Take `CC1(C)C(C=C(Cl)Cl)C1C(=O)OCc1c(F)c(F)c(F)c(F)c1F` (stereo not shown) [pentafluorobenzyl ester]: the “amount that killed flies in the same time” value in the series with flies is listed as “only a fifteenth of it killed flies in the same time”.
As for `CC1(C)C(C=C(Cl)Cl)C1C(=O)OCc1c(F)c(F)cc(F)c1F` (stereo not shown) [tetrafluorobenzyl ester], in the series with insects [6], the insecticidal action result is “good insecticidal action”.
